Values joined by “and” are separate entries in the source; they are usually repeats but may differ in a detail not shown here. Identical values can stand only once. Like-named read-outs stand apart in the source and are kept apart here.
Tested on: T1, GCaMP5-expressing T. gondii
T1 construct: whole extracellular parasites expressing GCaMP5 Ca2+ sensor
Parameters: species or system GCaMP5-expressing Toxoplasma gondii, extracellular; GCaMP5 fluorescence (cytosolic Ca2+) after 100 uM zaprinast in compound-pretreated extracellular parasites, background-subtracted, relative to zaprinast alone
Conditions: 100 uM zaprinast stimulation, 10 min pretreatment, mean of two replicates, 0.23 h
In short: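 Extracellular GCaMP5-expressing parasites in Ringer's solution were pretreated with compounds (single 10 μM dose, two biological replicates) for 10 min, then stimulated with 100 μM zaprinast at 37 °C for 4 min. Fluorescence read at 485/525 nm, basal subtracted, expressed as fold change relative to zaprinast-only parasites.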

## COc1cccc(NC(=O)Nc2ccc(C)c(-c3ccc(C(=O)Nc4ccncc4)cc3)c2)c1 [GSK1398474A]
  fold change in fluorescence relative to zaprinast alone: 1.231

## O=C1NC(=O)C(N2CCc3ccccc32)=C1c1ccccc1Cl [SB-373598]
  fold change in fluorescence relative to zaprinast alone: 1.071

## COc1cccc(NC(=O)NCCNc2ccnc(Nc3ccc(F)cc3)n2)c1 [GSK1379879A]
  fold change in fluorescence relative to zaprinast alone: 1.178

## COc1cc(Nc2nccc(N3CCC(NC(=O)c4cccc(C#N)c4)C3)n2)cc(OC)c1OC (centres unmarked) [GSK1379751A]
  fold change in fluorescence relative to zaprinast alone: 1.563

## c1ccc(-c2n[nH]cc2-c2ccnc(-c3ccc(OCCn4ccnc4)cc3)c2)nc1 [GW711782X]
  fold change in fluorescence relative to zaprinast alone: 1.163

## O=C(c1ccc(-c2cc(-c3cn[nH]c3-c3ccccn3)ccn2)cc1)N1CCOCC1 [GW812171X]
  fold change in fluorescence relative to zaprinast alone: 1.17

## CC1=C(C(=O)Nc2ccc3[nH]ncc3c2)C(c2ccc(F)cc2)NC(=O)N1 (centres unmarked) [GSK180736A]
  fold change in fluorescence relative to zaprinast alone: 0.8811

## FC(F)(F)c1ccc(-c2nn3ncccc3c2-c2ccnc(Nc3ccc(Cl)c(C(F)(F)F)c3)n2)cc1 [GW829350X]
  fold change in fluorescence relative to zaprinast alone: 0.9679

## Cc1ccc(C)c(NC(=O)NCCNc2ccnc(Nc3ccc(F)cc3)n2)c1 [GSK1379878A]
  fold change in fluorescence relative to zaprinast alone: 1.583

## Cc1ccc(-c2nc(Nc3ccncc3)c3ccccc3n2)s1 [GSK189015A]
  fold change in fluorescence relative to zaprinast alone: 0.1154

## O=C1NC(=O)C(c2ccc(Cl)cc2)=C1Nc1ccc(O)cc1 [SB-340867]
  fold change in fluorescence relative to zaprinast alone: 1.192

## Nc1nc(-c2ccccn2)c(-c2ccnc3ccccc23)s1 [GW548057X]
  fold change in fluorescence relative to zaprinast alone: 0.7803

## NCCC(NC(=O)c1cc(Br)c(-c2ccnc3[nH]ccc23)s1)c1ccccc1 (centres unmarked) [GSK1307810A]
  fold change in fluorescence relative to zaprinast alone: 0.5195

## Cc1ccc(C(=O)NC2CCCCC2)cc1-c1ccc(C(=O)NCC2CC2)cc1 [GW782907X]
  fold change in fluorescence relative to zaprinast alone: 1.25

## NC(=O)c1ccc(-c2nc(-c3ccccn3)c(-c3ccc4c(c3)OCO4)[nH]2)cc1 [SB-431542-A]
  fold change in fluorescence relative to zaprinast alone: 1.08

## Clc1cccc(-c2nc(Nc3ccncc3)c3ccccc3n2)c1 [GW873004X]
  fold change in fluorescence relative to zaprinast alone: 1.301

## CS(=O)(=O)Nc1ccc(-c2ccnc3[nH]ccc23)cc1 [GSK993273A]
  fold change in fluorescence relative to zaprinast alone: 1.181

## CCn1c(-c2nonc2N)nc2c(C#CC(C)(C)O)nc(O[C@@H](CN)c3ccccc3)cc21 [GSK1007102B]
  fold change in fluorescence relative to zaprinast alone: 1.188

## Fc1ccc(-c2ncn(CCCN3CCOCC3)c2-c2ccccn2)cc1 [SB-211742]
  fold change in fluorescence relative to zaprinast alone: 1.072

## O=C(Nc1n[nH]c2nc(-c3cccs3)c(Br)cc12)C1CC1 [SB-735297]
  fold change in fluorescence relative to zaprinast alone: 1.322

## Cc1cccc(-c2cc(-c3cn[nH]c3-c3ccccn3)ccn2)c1 [GW679395X]
  fold change in fluorescence relative to zaprinast alone: 0.9312

## COc1cc(Nc2ncc3c(C)nc(-c4cc5ccccc5[nH]4)n3n2)cc(OC)c1OC [GW869516X]
  fold change in fluorescence relative to zaprinast alone: 0.08874

## COc1ccc(CNC(=O)NC2CCN(c3ccnc(Nc4ccc(F)cc4)n3)CC2)cc1 [GSK1379788A]
  fold change in fluorescence relative to zaprinast alone: 1.01

## Cc1nnc(-c2ccc(C)c(-c3ccc(C(=O)Nc4ccc(NS(C)(=O)=O)cc4)cc3)c2)o1 [GW702865X]
  fold change in fluorescence relative to zaprinast alone: 1.258

## CN1CCN(C(=O)c2ccc(NC(=O)Nc3ccc(N(C)c4ccnc(Nc5ccc(CS(C)(=O)=O)cc5)n4)cc3)cc2)CC1 [GW830263A]
  fold change in fluorescence relative to zaprinast alone: 1.245

## COC(=O)Nc1nc2cc(Oc3ccc(NC(=O)Nc4ccccc4)cc3)ccc2[nH]1 [GW694590A]
  fold change in fluorescence relative to zaprinast alone: 1.127

## NS(=O)(=O)c1cccc(-c2cc3ccncc3cc2OCc2ccccc2)c1 [GSK980961A]
  fold change in fluorescence relative to zaprinast alone: 0.9595

## c1cc(-c2cnn3nc(N4CCOCC4)ccc23)nc(NC2CC2)n1 [GW708336X]
  fold change in fluorescence relative to zaprinast alone: 0.6756

## CCn1c(-c2nonc2N)nc2ccccc21 [SB-693162]
10 µM
  fold change in fluorescence relative to zaprinast alone: 0.7593 and 1.139

## CCn1c(-c2nonc2N)nc2c(C#CC(C)(C)O)nc(OC[C@H](N)c3ccccc3)cc21 [GSK943949A]
  fold change in fluorescence relative to zaprinast alone: 1.114

## O=C(Nc1ccc(Oc2ccc3[nH]c(NC(=O)c4ccco4)nc3c2)cc1)Nc1cc(C(F)(F)F)ccc1F [GW683134A]
  fold change in fluorescence relative to zaprinast alone: 1.019

## C=CC(=O)Nc1cc2c(Nc3ccc(F)c(Cl)c3)ncnc2cc1OCCCN1CCOCC1 [GW781483X]
  fold change in fluorescence relative to zaprinast alone: 1.29

## COc1ccc(Nc2nccc(N3CCC(NC(=O)Nc4cc(C)ccc4C)C3)n2)cc1 (centres unmarked) [GSK1379741A]
  fold change in fluorescence relative to zaprinast alone: 1.033

## CC(=O)Nc1cccc(C#Cc2cncnc2Nc2ccc(OCc3cccc(F)c3)c(Cl)c2)c1 [GW703087X]
  fold change in fluorescence relative to zaprinast alone: 1.104

## Nc1nccc(-c2c(-c3ccc(F)cc3)ncn2CCCN2CCOCC2)n1 [SB-216385]
  fold change in fluorescence relative to zaprinast alone: 1.045

## Cc1ccn2nc(-c3ccc(F)cc3)c(-c3ccncc3)c2c1 [GW457859A]
  fold change in fluorescence relative to zaprinast alone: 0.07245

## CCn1cc(-c2ccnc3[nH]ccc23)c(-c2cccc(NC(=O)Nc3ccc(OCc4ccccc4)cc3)c2)n1 [GSK718429A]
  fold change in fluorescence relative to zaprinast alone: 1.268

## Cc1nc(-c2ccccc2)n2nc(NCCCN3CCOCC3)ncc12 [GW874091X]
  fold change in fluorescence relative to zaprinast alone: 1.267

## CN1C(=O)C(Nc2cc(Cl)c(O)c(Cl)c2)=C(c2ccc(Cl)cc2)C1=O [SB-404321]
  fold change in fluorescence relative to zaprinast alone: 1.253

## COc1nccc(-c2c(-c3ccc(F)cc3)ncn2CCCN2CCOCC2)n1 [SB-282852]
  fold change in fluorescence relative to zaprinast alone: 0.8251

## NC(=O)c1cc(-c2ccc(F)cc2)cc(-c2ccncc2)c1N [GSK620503A]
  fold change in fluorescence relative to zaprinast alone: 1.057

## CNc1nccc(-c2ccc3c(N)n[nH]c3c2)n1 [GSK2206003A]
  fold change in fluorescence relative to zaprinast alone: 1.243

## O=S(=O)(CCNCc1ccc(-c2ccc3ncnc(Nc4ccc(OCc5cccc(F)c5)c(Cl)c4)c3c2)o1)c1ccccc1 [GW633459A]
  fold change in fluorescence relative to zaprinast alone: 1.016

## COc1cccc2c(-c3ccncc3)c(-c3ccc(F)cc3)nn12 [GW468513X]
  fold change in fluorescence relative to zaprinast alone: 0.06975

## CN(C)CCCn1c(-c2nonc2N)nc2cnccc21 [SB-751399]
  fold change in fluorescence relative to zaprinast alone: 1.355

## N#Cc1ccc(-c2cc(-c3cn[nH]c3-c3ccccn3)ccn2)cc1 [GW693028X]
  fold change in fluorescence relative to zaprinast alone: 1.123

## CCn1c(-c2nonc2N)nc2c(C#CC(C)(C)O)nc(OCCNC)cc21 [GSK949675A]
  fold change in fluorescence relative to zaprinast alone: 1.152

## Cc1ccc(NC(=O)c2cccc(N3CCCCC3)c2)cc1-c1ccc(C(=O)NCC2CC2)cc1 [GSK1917008A]
  fold change in fluorescence relative to zaprinast alone: 1.193

## COC(=O)Nc1nc2ccc(Oc3ccc(NC(=O)Nc4cc(F)ccc4F)cc3)cc2[nH]1 [GW701424A]
  fold change in fluorescence relative to zaprinast alone: 1.084

## Cc1cccc(-c2n[nH]cc2-c2ccc3ncccc3n2)n1 [GW786460X]
  fold change in fluorescence relative to zaprinast alone: 1.226

## CN(C)CCNC(=O)Nc1ccc(N(C)c2ccnc(Nc3ccc(CS(C)(=O)=O)cc3)n2)cc1 [GW830900A]
  fold change in fluorescence relative to zaprinast alone: 1.233

## CCn1c(-c2nonc2N)nc2c(-c3ccccc3)ncc(OCCCN)c21 [GSK260205A]
10 µM
  fold change in fluorescence relative to zaprinast alone: 0.1513

## FC(F)(F)c1ccc(-c2nn3ncccc3c2-c2ccnc(Nc3ccccc3)n2)cc1 [GW828206X]
  fold change in fluorescence relative to zaprinast alone: 0.303

## COc1ccc(Nc2ncc(C#N)c(Nc3ccccc3C(N)=O)n2)cc1N1CCN(C)CC1 [GSK1558669A]
  fold change in fluorescence relative to zaprinast alone: 1.412

## O=C(Nc1n[nH]c2cc(-c3ccccc3F)ccc12)C1CC1 [SB-733371]
  fold change in fluorescence relative to zaprinast alone: 0.8641

## O=S(=O)(CCOCc1ccc(-c2ccc3ncnc(Nc4ccc(OCc5cccc(F)c5)c(Cl)c4)c3c2)o1)c1ccccc1 [GW615311X]
  fold change in fluorescence relative to zaprinast alone: 1.258

## CN(c1ccc(NC(=O)N2CCN(CCCN3CCOCC3)CC2)cc1)c1ccnc(Nc2ccc(CS(C)(=O)=O)cc2)n1 [GW830899A]
  fold change in fluorescence relative to zaprinast alone: 1.092

## Cc1ccc(NC(=O)c2ccnc(N3CCCC3)c2)cc1-c1ccc(C(=O)NCC2CC2)cc1 [GW769076X]
  fold change in fluorescence relative to zaprinast alone: 1.128

## Fc1ccc(-c2nc3n(c2-c2ccncc2)CCS3)cc1 [SKF-86002]
10 µM
  fold change in fluorescence relative to zaprinast alone: 1.092

## Cc1ccc(NC(=O)c2cccc(C#N)c2)cc1-c1ccc(C(=O)Nc2ccncc2)cc1 [GSK1398463A]
  fold change in fluorescence relative to zaprinast alone: 1.609

## NC(CNC(=O)c1cc(Br)c(-c2ccnc3[nH]ccc23)s1)c1ccccc1 (centres unmarked) [GSK1322949A]
  fold change in fluorescence relative to zaprinast alone: 0.4024

## CCn1cnc2c(NCc3ccccc3)ncnc21 [SKF-96418]
  fold change in fluorescence relative to zaprinast alone: 0.8238

— article PMC4850295, “Using a Genetically Encoded Sensor to Identify Inhibitors of Toxoplasma gondii Ca^2+ Signaling” (The Journal of Biological Chemistry, 2016)
